# Measurements reported in patent US20180171411A1, “GFRalpha1 AS A BIOMARKER FOR CISPLATIN-INDUCED CHEMORESISTANCE AND METASTASIS” (THE BOARD OF REGENTS OF THE UNIVERSITY OF TEXAS SYSTEM, priority 2015, published 2018).
# Legend:
# Format in all cases: cell-based, human
# [1] = tested on: GFRα1-overexpressing MG-63 clone #4; assay: Colony-forming assay in the presence of cisplatin; details: cisplatin 20 μM 10 days; 3-MA (10 μM), Baf (100 nM), CQ (30 μg/ml)
# Description: FIG. 3. […] Scale bar, 20 μm. […] Scale bar, 20 μm. […] Scale bar, 20 μm.
# [2] = tested on: APE1 expression in osteosarcoma cells; assay: Immunoblot of APE1 expression after cisplatin; details: different concentrations of cisplatin, 24 h
# Experimental: FIG. 10. GFRα1-mediated chemoresistance of osteosarcoma cells is independent of APE and RET signaling. (a) Immunoblot analysis of MG-63 cell lysates with antibodies specific for APE, RET and β-actin. MG-63 and U-2 OS cells were treated with different concentrations of cisplatin for 24 h. The cell lysates of GDNF-treated MIA PaCa-2 were used as positive controls for APE and RET expression.
# Immunoblotting. Cells were washed with PBS and lysed in RIPA Buffer (Pierce, Rockford, Ill.). The protein content was determined using a dye-binding microassay (Bio-Rad, Hercules, Calif.), and 10-50 μg protein per lane was electrophoresed on 4-12% SDS polyacrylamide gels. Proteins were blotted onto Hybond ECL membranes (Amersham Pharmacia Biotech, Piscataway, N.J.). Two protein ladders were used for molecular weight determination (GenDEPOT, Barker, Tex.). The blotted proteins were detected using an enhanced chemiluminescence detection system (iNtRON, Seoul, Korea). Data were quantified and analyzed with Image-J software.
# MG-63 cells = assay: Transmission electron microscopy of autophagic vacuoles; details: control MG-63 cells; cisplatin 20 μM, 24 hr
# Experimental: FIG. 3. GFRα1-induced autophagy enhances the chemoresistance of osteosarcoma cells induced by cisplatin. (a) Control and GFRα1-deficient MG-63 cells were transiently transfected with a mRFP-GFP tandem fluorescent-tagged LC3 (mRFP-GFP-LC3) vector and then treated with cisplatin (20μM) for 24 hr. Left, representative images of RFP-LC3 and GFP-LC3 puncta. Scale bar, 20 μm. Right, quantitative analysis of the number of yellow puncta and the number of RFP-LC3 puncta in the combined images. The values are represented as a mean±s.d.m. (n=3). ** denotes p<0.05 by t-test. (b) Control and GFRα1-deficient MG-63 cells were treated with cisplatin (20 μM) for 24 hr and then stained with acridine orange. […] Bottom, quantitative analysis of the number of AVOs. […] (c) Control and GFRα1-deficient MG-63 cells were treated with cisplatin (20 μM) for 24 hr and then analyzed by TEM. Top, representative images of autophagic vacuoles (yellow arrows) detected after cisplatin treatment in control MG-63 cells. […] Bottom, quantitative analysis of the number of autophagic vacuoles. […] (e) Quantitative analysis of the number of yellow puncta and the number of RFP-LC3 puncta in control and GFRα1-overexpressing MG-63 cells. […] Bottom, quantitative analysis of the number of AVOs. […] (h) Control and GFRα1-overexpressing MG-63 cells were treated with cisplatin (20 μM) for 24 hr and then analyzed by TEM. […]
Compound,number of colonies [1],level of APE1 expression [2],number of autophagic vacuoles per cell (MG-63 cells)
"Cn1cnc(N)c2ncnc1-2 [3-MA, 3-methyladenine]",effectively reduced,,
"N.N.[Cl][Pt][Cl] [cisplatin, Cis-Diamineplatinum(II) dichloride]",,not affected,markedly increased
